Values quoted from earlier work as cited in patent publication US20080194494A1, “4-Biarylyl-1-Phenylazetidin-2-One Glucuronide Derivatives for Hypercholesterolemia” (MICROBIA, INC., priority 2005, published 2008).

Experiments:
[1] = in humans
[2] = in vivo

## O=C1[C@H](CC[C@H](O)c2ccc(F)cc2)[C@@H](c2ccc(O)cc2)N1c1ccc(F)cc1 [ezetimibe, (3R,4S)-1-(4-fluorophenyl)-3-[(3S)-3-(4-fluorophenyl)-3-hydroxypropyl]-4-(4-hydroxyphenyl)azetidin-2-one]
[1]
  effect on fat-soluble vitamin absorption: does not appear to affect
[2]
  inhibition of the absorption of taurocholic acid: does not inhibit
